In US10667517B2, “2-(Het)aryl-substituted fused heterocycle derivatives as pesticides” (BAYER CROPSCIENCE AKTIENGESELLSCHSAFT, priority 2015, dated 2020):

Test: log P (neutral), HPLC on reversed-phase column (C 18), LC-MS neutral range
Type: physicochemical
Conditions: for chromatographic logP: reversed-phase HPLC column (C 18), pH 7.8, HPLC reversed-phase C 18, 55° C.
Description: Temperature: 55° C. […] Called log P (neutral) in the table.

[1] = pH 7.8, ammonium hydrogencarbonate/acetonitrile
[2] = HPLC reversed-phase C 18, 55° C., pH 7.8, ammonium hydrogencarbonate/acetonitrile

Compound	chromatographic logP [1]	other results
CCS(=O)(=O)c1ccc(S(=O)(=O)CC)c(-c2cn3cnc(C(F)(F)F)cc3n2)n1 [LXXIII-1, 2-[3,6-Bis(ethylsulphonyl)pyridin-2-yl]-7-(trifluoromethyl)imidazo[1,2-c]pyrimidine]	2.28	
CCSc1ccc(Br)nc1-c1nc2cc(C(F)(F)F)cnc2o1 [XI-5, 2-[6-Bromo-3-(ethylsulphanyl)pyridin-2-yl]-6-(trifluoromethyl)[1,3]oxazolo[5,4-b]pyridine]	4.16	
CCS(=O)(=O)c1ccc(C(=O)NC)nc1-c1nc2cc(C(F)(F)F)nnc2n1C [Example I-39, 5-(Ethylsulphonyl)-N-methyl-6-[7-methyl-3-(trifluoromethyl)-7H-imidazo[4,5-c]pyridazin-6-yl]pyridine-2-carboxamide]	1.96	
CCS(=O)(=O)c1ccc(-n2cc(Cl)cn2)nc1-c1nc2cc(C(F)(F)F)cnc2o1 [Example I-41]		log P (neutral) [2]: 4.01
CCS(=O)(=O)c1ccc(C(=O)OC)nc1-c1nc2cc(C(F)(F)F)nnc2n1C [LXXX-2, Methyl 5-(ethylsulphonyl)-6-[7-methyl-3-(trifluoromethyl)-7H-imidazo[4,5-c]pyridazin-6-yl]pyridine-2-carboxylate]	2.19	
FC1(F)Oc2cc3nc(-c4nc(Cl)ccc4Cl)[nH]c3cc2O1 [IX-4, 6-(3,6-Dichloro-2-pyridyl)-2,2-difluoro-5H-[1,3]dioxolo[4,5-f]benzimidazole]	3.2	
CON(C)C(=O)c1nc(F)ccc1F [3,6-Difluoro-N-methoxy-N-methylpyridine-2-carboxamide]	1.05	
CCS(=O)(=O)c1ccc(-n2cc(Cl)cn2)nc1-c1cn2cc(C(F)(F)F)ncc2n1 [Example I-18, 2-[6-(4-Chloro-1H-pyrazol-1-yl)-3-(ethylsulphonyl)pyridin-2-yl]-6-(trifluoromethyl)imidazo[1,2-a]pyrazine]	3.44	
CCSc1ccc(F)nc1-c1cn2cnc(C(F)(F)F)cc2n1 [XI-4, 2-[3-(Ethylsulphanyl)-6-fluoropyridin-2-yl]-7-(trifluoromethyl)imidazo[1,2-c]pyrimidine]	2.78	
CCS(=O)(=O)c1ccc(-n2cccn2)nc1-c1cn2cnc(C(F)(F)F)cc2n1 [Example I-46]		log P (neutral) [2]: 2.58
CCS(=O)(=O)c1ccc(NC(=O)C(F)(F)F)nc1-c1nc2cc(C(F)(F)F)cnc2o1 [Example I-40]		log P (neutral) [2]: 3.09
COC(=O)c1ccc(Cl)c(-c2nc3cc(C(F)(F)F)cnc3n2C)n1 [LXXVIII-1, Methyl 5-chloro-6-[3-methyl-6-(trifluoromethyl)-3H-imidazo[4,5-b]pyridin-2-yl]pyridine-2-carboxylate]	2.7	
CCSc1ccc(Cl)nc1-c1nc2cc3c(cc2n1C)OC(F)(F)O3 [XI-3, 6-(6-Chloro-3-ethylsulphanyl-2-pyridyl)-2,2-difluoro-7-methyl-[1,3]dioxolo[4,5-f]benzimidazole]	3.8	
CCS(=O)(=O)c1ccc(NC(C)=O)nc1-c1nc2cc(C(F)(F)F)cnc2o1 [Example I-19, N-{5-(Ethylsulphonyl)-6-[6-(trifluoromethyl) [1,3]oxazolo[5,4-b]pyridin-2-yl]pyridin-2-yl}acetamide]	2.44	
Cn1c(-c2nc(Cl)ccc2Cl)nc2cc(C(F)(F)F)nnc21 [IX-7, 6-(3,6-Dichloro-2-pyridyl)-7-methyl-3-(trifluoromethyl)imidazo[4,5-c]pyridazine]	2.65	
CCSc1ccc(F)nc1-c1nc2cc(C(F)(F)F)cnc2n1C [XI-2, 2-[3-(Ethylsulphanyl)-6-fluoropyridin-2-yl]-3-methyl-6-(trifluoromethyl)-3H-imidazo[4,5-b]pyridine]	3.45	
Cn1c(-c2nc(F)ccc2F)nc2cc(C(F)(F)F)cnc21 [IX-2, 2-(3,6-Difluoropyridin-2-yl)-3-methyl-6-(trifluoromethyl)-3H-imidazo[4,5-b]pyridine]	2.72	
CCS(=O)(=O)c1ccc(C(=O)NC)nc1-c1nc2cc(C(F)(F)F)cnc2n1C [Example I-34, 5-(Ethylsulphonyl)-N-methyl-6-[3-methyl-6-(trifluoromethyl)-3H-imidazo[4,5-b]pyridin-2-yl]pyridine-2-carboxamide]	2.36	
CCSc1ccc(Cl)nc1-c1nc2cc(C(F)(F)F)nnc2n1C [XI-6, 6-(6-Chloro-3-ethylsulphanyl-2-pyridyl)-7-methyl-3-(trifluoromethyl)imidazo[4,5-c]pyridazine]	3.28	
CC(=O)c1nc(F)ccc1F [1-(3,6-Difluoropyridin-2-yl)ethanone]	1.24	
O=C(CBr)c1nc(F)ccc1F [2-Bromo-1-(3,6-difluoropyridin-2-yl)ethanone]	1.93	log P (neutral) [2]: 1.95
CCS(=O)(=O)c1ccc(Cl)nc1-c1nc2cc3c(cc2n1C)OC(F)(F)O3 [XIII-3, 6-(6-Chloro-3-ethylsulphonyl-2-pyridyl)-2,2-difluoro-7-methyl-[1,3]dioxolo[4,5-f]benzimidazole]	3.2	

Compound	chromatographic logP [1]	other results
CCS(=O)(=O)c1ccc(C(=O)OC)nc1-c1nc2cc(C(F)(F)F)cnc2n1C [LXXX-1, Methyl 5-(ethylsulphonyl)-6-[3-methyl-6-(trifluoromethyl)-3H-imidazo[4,5-b]pyridin-2-yl]pyridine-2-carboxylate]	2.61	
CCS(=O)(=O)c1ccc(S(=O)(=O)CC)c(-c2cn3cc(C(F)(F)F)ncc3n2)n1 [LXXIII-2, 2-[3,6-Bis(ethylsulphonyl)pyridin-2-yl]-6-(trifluoromethyl)imidazo[1,2-a]pyrazine]	2.23	
CCS(=O)(=O)c1ccc(-n2cc(Cl)cn2)nc1-c1nc2cc(C(F)(F)F)nnc2n1C [Example I-35, 6-[6-(4-Chloropyrazol-1-yl)-3-ethylsulphonyl-2-pyridyl]-7-methyl-3-(trifluoromethyl)imidazo[4,5-c]pyridazine]	3.38	
CCS(=O)(=O)c1ccc(-n2cncn2)nc1-c1cn2cnc(C(F)(F)F)cc2n1 [Example I-28]		log P (neutral) [2]: 2.19
CCS(=O)(=O)c1ccc(-n2cncn2)nc1-c1nc2cc(C(F)(F)F)nnc2n1C [Example I-43]		log P (neutral) [2]: 2.08
CCS(=O)(=O)c1ccc(-n2nccn2)nc1-c1nc2cc(C(F)(F)F)nnc2n1C [Example I-44]		log P (neutral) [2]: 2.21
CCS(=O)(=O)c1ccc(-n2ccnc2)nc1-c1cn2cnc(C(F)(F)F)cc2n1 [Example I-45]		log P (neutral) (pH 7.8): 2.07
CCS(=O)(=O)c1ccc(-n2ccc(C(F)(F)F)n2)nc1-c1nc2cc(C(F)(F)F)cnc2o1 [Example I-42]		log P (neutral) [2]: 4.17
CCSc1ccc(Br)nc1C(=O)O [6-Bromo-3-(ethylsulphanyl)pyridine-2-carboxylic acid]	1.79	
CCSc1ccc(SCC)c(-c2cn3cc(C(F)(F)F)ncc3n2)n1 [LXXI-1, 2-[3,6-Bis(ethylsulphanyl)pyridin-2-yl]-6-(trifluoromethyl)imidazo[1,2-a]pyrazine]	4	
CCSc1ccc(Br)nc1C(=O)Nc1cc(C(F)(F)F)cnc1Cl [LXIX-1, 6-Bromo-N-[2-chloro-5-(trifluoromethyl)pyridin-3-yl]-3-(ethylsulphanyl)pyridine-2-carboxamide]	5.27	
CCSc1ccc(F)nc1-c1nc2cc(C(F)(F)F)ccc2n1C [XI-1, 2-[3-(Ethylsulphanyl)-6-fluoropyridin-2-yl]-1-methyl-5-(trifluoromethyl)-1H-benzimidazole]	3.44	
CCS(=O)(=O)c1ccc(F)nc1-c1nc2cc(C(F)(F)F)cnc2n1C [XIII-2, 2-[3-(Ethylsulphonyl)-6-fluoropyridin-2-yl]-3-methyl-6-(trifluoromethyl)-3H-imidazo[4,5-b]pyridine]	2.8	
Fc1ccc(F)c(-c2cn3cnc(C(F)(F)F)cc3n2)n1 [IX-5, 2-(3,6-Difluoropyridin-2-yl)-7-(trifluoromethyl)imidazo[1,2-c]pyrimidine]	2.02	
CCS(=O)(=O)c1ccc(NC2COC2)nc1-c1nc2cc(C(F)(F)F)cnc2n1C [Example I-26]		log P (neutral) [2]: 2.27
CCS(=O)(=O)c1ccc(-n2nccn2)nc1-c1cn2cnc(C(F)(F)F)cc2n1 [Example I-27]		log P (neutral) [2]: 2.28
CCS(=O)(=O)c1ccc(Cl)nc1-c1nc2cc(C(F)(F)F)nnc2n1C [XIII-5, 6-(6-Chloro-3-ethylsulphonyl-2-pyridyl)-7-methyl-3-(trifluoromethyl)imidazo[4,5-c]pyridazine]	2.6	
CCSc1ccc(C(=O)OC)nc1-c1nc2cc(C(F)(F)F)cnc2n1C [LXXIX-1, Methyl 5-(ethylsulphanyl)-6-[3-methyl-6-(trifluoromethyl)-3H-imidazo[4,5-b]pyridin-2-yl]pyridine-2-carboxylate]	3.25	
CCS(=O)(=O)c1ccc(F)nc1-c1nc2cc(C(F)(F)F)ccc2n1C [XIII-1, 2-[3-(Ethylsulphonyl)-6-fluoropyridin-2-yl]-1-methyl-5-(trifluoromethyl)-1H-benzimidazole]	2.96	
Cn1c(-c2nc(Cl)ccc2Cl)nc2cc3c(cc21)OC(F)(F)O3 [IX-3, 6-(3,6-Dichloro-2-pyridyl)-2,2-difluoro-7-methyl-[1,3]dioxolo[4,5-f]benzimidazole]	3.22	
Cn1c(-c2nc(F)ccc2F)nc2cc(C(F)(F)F)ccc21 [IX-1, 2-(3,6-Difluoropyridin-2-yl)-1-methyl-5-(trifluoromethyl)-1H-benzimidazole]	2.83	
